# Experimental data from the supplement of paper PMC7840683.
# ± gives the standard deviation of the averaged measurements.
# System: HepaRG
# Assay: LDH release cytotoxicity, % of total lysis control; higher = more cytotoxic
# Conditions: 48 h
# Method in brief: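 Duplicate wells of single-lot HepaRG cells, grown on collagen I-coated 96-well plates, received eight-point half-log series of test chemicals with 100 µM as the top concentration. Exposure lasted 48 h in serum-free induction medium with 0.5% DMSO, while total lysis wells received 0.1% Triton X. Resorufin fluorescence (CytoTox-ONE, Tecan Safire) was used to quantify LDH leaked into 50 µL of spent medium. Values for percent cytotoxicity were normalized to on-plate vehicle and total lysis controls and averaged across the duplicates.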
SMILES,LDH release cytotoxicity (0.03162 µM) [%],LDH release cytotoxicity (0.1 µM) [%],LDH release cytotoxicity (0.3162278 µM) [%],LDH release cytotoxicity (1 µM) [%],LDH release cytotoxicity (3.16228 µM) [%],LDH release cytotoxicity (10 µM) [%],LDH release cytotoxicity (31.6228 µM) [%],LDH release cytotoxicity (100 µM) [%],also measured
Cc1ccc2ncccc2c1 [6-Methylquinoline],-1.09 ± 0.86,-1.74 ± 0.29,-0.691 ± 0.21,-0.702 ± 0.45,1.12 ± 0.71,3.62 ± 0.63,6.32 ± 0.88,12.7 ± 2.4,–
CCCC1=NC(=S)NC(=O)C1 [6-Propyl-2-thiouracil],-1.25 ± 0.13,-1.68 ± 0.29,-2.72 ± 0.31,-2.49 ± 0.1,-2.28 ± 0.038,-1.9 ± 0.03,-1.25 ± 0.71,0.0182 ± 1.5,–
Nc1nc2nc[nH]c2c(=S)[nH]1 [6-Thioguanine],–,-2.6 ± 0.7,–,-2.88 ± 0.19,-2.5 ± 0.32,-2.64 ± 0.061,-1.86 ± 0.074,-0.0388 ± 0.38,LDH release cytotoxicity (0.031623 µM): 1.04 ± 0.63%; LDH release cytotoxicity (0.316228 µM): -2.87 ± 0.84%
OCCC(F)(F)C(F)(F)C(F)(F)C(F)(F)C(F)(F)C(F)(F)F [6:2 Fluorotelomer alcohol],-0.419 ± 0.26,-1.392 ± 0.012,-1.67 ± 0.41,-2.28 ± 0.32,-1.52 ± 0.59,-1.12 ± 1.1,-1.141 ± 0.005,-0.148 ± 0.73,–
C=C(C)C(=O)OCCC(F)(F)C(F)(F)C(F)(F)C(F)(F)C(F)(F)C(F)(F)F [6:2 Fluorotelomer methacrylate],-0.461 ± 0.18,0.735 ± 1.2,0.518 ± 0.41,-0.0542 ± 0.29,0.38 ± 0.35,0.535 ± 0.98,0.834 ± 0.34,1.55 ± 0.43,–
"O=c1c(-c2ccc(O)cc2)coc2cc(O)ccc12 [7,4'-Dihydroxyisoflavone]",-1.77 ± 0.55,-1.95 ± 0.049,-1.45 ± 0.29,-2.21 ± 0.22,-1.87 ± 0.47,-0.343 ± 0.097,-0.854 ± 0.4,0.307 ± 0.89,–
"Cc1c2ccccc2c(C)c2c1ccc1ccccc12 [7,12-Dimethylbenz(a)anthracene]",-1.46 ± 0.43,-1.68 ± 0.46,-1.43 ± 0.069,-1.27 ± 1.4,-1.45 ± 0.084,-1.64 ± 0.1,1.86 ± 0.39,-0.663 ± 0.032,–
"CCC12COCN1COC2 [7a-Ethyldihydro-1H,3H,5H-oxazolo(3,4-c)oxazole]",-1.45 ± 0.8,-1.96 ± 0.61,-1.68 ± 0.1,-1.43 ± 1.1,-1.46 ± 0.12,-1.34 ± 0.19,0.0307 ± 0.78,0.471 ± 1.6,–
Oc1cccc2cccnc12 [8-Hydroxyquinoline],-1.07 ± 0.79,-1.23 ± 0.047,-1.16 ± 0.3,-1.2 ± 0.24,-1.01 ± 0.27,-0.111 ± 1.7,0.218 ± 1.5,2.33 ± 0.36,–
OCCC(F)(F)C(F)(F)C(F)(F)C(F)(F)C(F)(F)C(F)(F)C(F)(F)C(F)(F)F [8:2 Fluorotelomer alcohol],–,-0.0838 ± 1.2,–,-2.22 ± 0.18,-2.23 ± 0.56,-1.35 ± 0.57,-1.87 ± 0.66,0.405 ± 2.2,LDH release cytotoxicity (0.031623 µM): -0.581 ± 1.7%; LDH release cytotoxicity (0.316228 µM): -1.41 ± 0.61%
Oc1cc2ccccc2c2ccccc12 [9-Phenanthrol],-1.97 ± 0.66,-2.29 ± 0.44,-2.11 ± 0.28,-2.1 ± 0.98,-2.21 ± 0.069,-2.2 ± 0.41,-2.94 ± 0.08,0.0725 ± 0.99,–
C=CCCCCCCCCC(=O)O [10-Undecenoic acid],0.758 ± 0.055,-0.653 ± 0.55,-0.789 ± 0.79,-0.96 ± 0.32,-0.518 ± 0.55,-0.534 ± 0.037,-1.07 ± 0.49,-0.0729 ± 0.15,–
CC12CCC(=O)C=C1CCC1C2CCC2(C)C1CCC2(C)O (stereo not given) [17-Methyltestosterone],-1.79 ± 1.4,-1.97 ± 0.62,-1.97 ± 1.4,-1.95 ± 2.3,-2.67 ± 0.81,-2.51 ± 1.4,-2.52 ± 1.9,-1.06 ± 1.5,–
CC12CCC3c4ccc(O)cc4CCC3C1CCC2O (stereo not drawn) [17alpha-Estradiol],-0.65 ± 1.4,-1.91 ± 0.5,-1.67 ± 0.056,-1.6 ± 0.054,-1.26 ± 0.039,-1.72 ± 0.24,-0.072 ± 0.52,1.51 ± 0.69,–
C#CC1(O)CCC2C3CCc4cc(O)ccc4C3CCC21C (stereo not drawn) [17alpha-Ethinylestradiol],-0.935 ± 0.49,-0.618 ± 0.51,-0.346 ± 0.13,-0.588 ± 0.39,-0.768 ± 0.53,-0.554 ± 1.1,0.171 ± 0.51,1.412 ± 0.013,–
CC(=O)C1(O)CCC2C3CCC4=CC(=O)CCC4(C)C3CCC21C (stereo not drawn) [17alpha-Hydroxyprogesterone],-0.419 ± 1.4,-1.4 ± 0.7,-2.18 ± 0.12,-1.25 ± 0.037,-0.766 ± 0.45,0.609 ± 1.4,-0.397 ± 0.26,0.684 ± 1.3,–
CC12CCC3c4ccc(O)cc4CCC3C1CCC2O (stereo not drawn) [17beta-Estradiol],–,–,–,–,–,–,–,–,LDH release cytotoxicity (0.01581 µM): -0.962 ± 0.82%; LDH release cytotoxicity (0.05 µM): -1.17 ± 0.59%; LDH release cytotoxicity (0.1581139 µM): -1.03 ± 0.66%; LDH release cytotoxicity (0.5 µM): -1.37 ± 0.08%; LDH release cytotoxicity (1.5811388 µM): -1.1 ± 0.62%; LDH release cytotoxicity (5 µM): -0.844 ± 0.077%; LDH release cytotoxicity (15.8114 µM): -0.113 ± 0.6%; LDH release cytotoxicity (50 µM): 6.2 ± 1.8%
CC12C=CC3=C4CCC(=O)C=C4CCC3C1CCC2O (stereo not drawn) [17beta-Trenbolone],-1.81 ± 0.85,-1.96 ± 0.88,-2.23 ± 1,-1.89 ± 0.49,-1.55 ± 0.47,-1.02 ± 0.27,-1.05 ± 0.63,0.211 ± 0.55,–
"CC(C)=CCC/C(C)=C\CO [(2Z)-3,7-Dimethylocta-2,6-dien-1-ol]",-0.521 ± 1.3,-0.112 ± 1.1,0.637 ± 0.11,0.207 ± 0.16,0.25 ± 0.08,0.588 ± 0.27,0.393 ± 0.26,1.1 ± 0.14,–
C/C=C/c1ccc(OC)cc1 [(E)-Anethole],-0.814 ± 0.42,-0.865 ± 0.97,-1.3 ± 0.57,-0.855 ± 0.66,-1.25 ± 0.25,-0.44 ± 0.067,-0.316 ± 0.29,1.16 ± 1,–
"O=C(N[C@H]1CN2CCC1CC2)c1cc2ccoc2cn1 [(R)-N-(Quinuclidin-3-yl)furo(2,3-C)pyridine-5-carboxamide]",-0.025 ± 0.11,1.01 ± 0.6,0.216 ± 0.84,0.437 ± 0.39,1.24 ± 0.3,0.814 ± 0.5,1.28 ± 0.19,1.77 ± 0.61,–
O=C(NC(=O)c1cc(F)c(F)cc1Cl)Nc1cc(F)ccc1N1CCC(C(=O)O)CC1 [AVE2865],–,–,–,–,–,–,–,–,LDH release cytotoxicity (0.01581 µM): 0.296 ± 0.54%; LDH release cytotoxicity (0.05 µM): -1.08 ± 0.4%; LDH release cytotoxicity (0.1581139 µM): -1.31 ± 0.41%; LDH release cytotoxicity (0.5 µM): -0.965 ± 0.11%; LDH release cytotoxicity (1.5811388 µM): -1.15 ± 0.067%; LDH release cytotoxicity (5 µM): -0.168 ± 0.023%; LDH release cytotoxicity (15.8114 µM): 0.386 ± 0.34%; LDH release cytotoxicity (50 µM): 0.68 ± 0.52%
O=C(O)c1ccc2c(c1)nc(C(=O)NC1CCN(C3CC3)CC1)n2Cc1cc(-c2ccc(Cl)s2)on1 [AVE3247],–,–,–,–,–,–,–,–,LDH release cytotoxicity (0.0075895 µM): -0.875 ± 0.16%; LDH release cytotoxicity (0.024 µM): -2.04 ± 0.26%; LDH release cytotoxicity (0.0758947 µM): -2.37 ± 0.35%; LDH release cytotoxicity (0.24 µM): -2.63 ± 0.092%; LDH release cytotoxicity (0.758947 µM): -2.23 ± 0.33%; LDH release cytotoxicity (2.4 µM): -1.94 ± 0.17%; LDH release cytotoxicity (7.58947 µM): -1.68 ± 0.43%; LDH release cytotoxicity (24 µM): -0.941 ± 0.19%
CCC(NC(=O)c1cc(F)ccc1NS(=O)(=O)c1cccc2cccnc12)c1ccccc1 (stereo not given) [AVE3295],–,–,–,–,–,–,–,–,LDH release cytotoxicity (0.0301998 µM): -1.81 ± 0.3%; LDH release cytotoxicity (0.0955 µM): -1.66 ± 1.1%; LDH release cytotoxicity (0.301997 µM): -1.7 ± 0.59%; LDH release cytotoxicity (0.955 µM): -1.55 ± 0.55%; LDH release cytotoxicity (3.01998 µM): -1.75 ± 0.27%; LDH release cytotoxicity (9.55 µM): -2.12 ± 0.47%; LDH release cytotoxicity (30.199752 µM): -1.2 ± 0.89%; LDH release cytotoxicity (95.5 µM): 4.69 ± 0.74%
NCc1cccc(C2CCN(C(=O)c3ccc(C#Cc4ccccc4F)o3)CC2)c1 [AVE5638],0.161 ± 0.38,0.0623 ± 0.48,0.0711 ± 0.39,0.0437 ± 0.62,0.441 ± 0.0046,0.359 ± 0.33,3.69 ± 0.52,65.1 ± 7.6,–
